Target: T1, mGlyT-1b (Mus musculus, UniProt P28571)
T1 construct: host or cells: Flp-in CHO cells, stably transfected
T1 sequence (P28571 1-651 isoform P28571-2): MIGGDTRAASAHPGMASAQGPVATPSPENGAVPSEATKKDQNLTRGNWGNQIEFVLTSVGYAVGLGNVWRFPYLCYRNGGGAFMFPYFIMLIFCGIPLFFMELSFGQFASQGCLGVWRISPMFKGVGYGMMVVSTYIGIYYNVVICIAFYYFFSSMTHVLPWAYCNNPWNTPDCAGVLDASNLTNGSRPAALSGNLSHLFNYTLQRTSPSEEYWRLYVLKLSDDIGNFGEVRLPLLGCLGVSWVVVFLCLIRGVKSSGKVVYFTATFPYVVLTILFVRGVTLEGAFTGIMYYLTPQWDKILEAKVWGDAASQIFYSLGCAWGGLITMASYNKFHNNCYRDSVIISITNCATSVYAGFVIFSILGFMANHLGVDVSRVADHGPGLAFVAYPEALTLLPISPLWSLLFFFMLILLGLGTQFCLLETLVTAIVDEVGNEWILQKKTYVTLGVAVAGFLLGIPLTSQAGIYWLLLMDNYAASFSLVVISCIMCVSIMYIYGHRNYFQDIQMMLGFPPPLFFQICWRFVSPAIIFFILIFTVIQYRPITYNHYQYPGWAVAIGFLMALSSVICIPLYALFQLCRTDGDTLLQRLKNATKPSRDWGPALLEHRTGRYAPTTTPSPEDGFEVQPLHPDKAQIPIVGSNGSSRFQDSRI
Assay: Glycine uptake inhibition assay (mGlyT-1b)
Type: cell-based
Details: inhibition of [3H]-glycine uptake in Flp-in-CHO cells stably transfected with mGlyT1b cDNA; 20 min at 22° C.
Method: DMEM complete medium: Nutrient mixture F-12 (Gibco Life-technologies), fetal bovine serum (FBS) 5%, (Gibco life technologies), Penicillin/Streptomycin 1% (Gibco life technologies), Hygromycin 0.6 mg/ml (Gibco life technologies), Glutamine 1 mM Gibco life technologies)
Uptake buffer (UB): 150 mM NaCl, 10 mM Hepes-Tris, pH 7.4, 1 mM CaCl2, 2.5 mM KCl, 2.5 mM MgSO4, 10 mM (+) D-glucose. Flp-in™—CHO (Invitrogen Cat n° R758-07)cells stably transfected with mGlyT1b cDNA.
Glycine uptake inhibition assay (mGlyT-1b)
On Day 1 mammallian cells, (Flp-in™—CHO), transfected with mGlyT-1b cDNA, were plated at the density of 40,000 cells/well in complete F-12 medium, without hygromycin in 96-well culture plates. On day 2, the medium was aspirated and the cells were washed twice with uptake buffer (UB). The cells were then incubated for 20 min at 22° C. with either (i) no potential competitor, (ii) 10 mM non-radioactive glycine, (iii) a concentration of a potential inhibitor. A range of concentrations of the potential inhibitor was used to generate data for calculating the concentration of inhibitor resulting in 50% of the effect (e.g. IC50, the concentration of the competitor inhibiting glycine uptake of 50%). A solution was then immediately added containing [^3H]-glycine 60 nM (11-16 Ci/mmol) and 25 μM non-radioactive glycine. The plates were incubated with gentle shaking and the reaction was stopped by aspiration of the mixture and washing (three times) with ice-cold UB. The cells were lysed with scintillation liquid, shaken 3 hours and the radioactivity in the cells was counted using a scintillation counter.

SMILES | IC50 [µM]
CC(=O)c1ccc(N2CCN(C(=O)c3cc([N+](=O)[O-])ccc3N3CCCCCC3)CC2)c(F)c1 [Example 28, 1-{4-[4-(2-Azepan-1-yl-5-nitro-benzoyl)-piperazin-1-yl]-3-fluoro-phenyl}-ethanone] | 0.0033
CNS(=O)(=O)c1ccc(N2CCOCC2)c(C(=O)N2CCN(c3ccc(C(F)(F)F)cc3F)CC2)c1 [Example 263, 3-[4-(2-Fluoro-4-trifluoro-methyl-phenyl)-piperazine-1-carbonyl]-N-methyl-4-morpholin-4-yl-benzene-sulfonamide] | 0.01
CS(=O)(=O)c1ccc(N2CCCCC2)c(C(=O)N2CCN(c3ccc(C(F)(F)F)c(F)c3)CC2)c1 [Example 220, [4-(3-Fluoro-4-trifluoromethyl-phenyl)piperazin-1-yl]-(5-methanesulfonyl-2-piperidin-1-yl-phenyl)-methanone] | 0.019
CC(=O)c1ccc(N2CCN(C(=O)c3cc([N+](=O)[O-])ccc3N3CCCCC3)CC2)c(F)c1 [Example 27, 1-{3-Fluoro-4-[4-(5-nitro-2-piperidin-1-yl-benzoyl)-piperazin-1-yl]-phenyl}-ethanone] | 0.0012
CC(=O)c1ccc(N2CCN(C(=O)c3cc([N+](=O)[O-])ccc3N3CCC(CO)C3)CC2)c(F)c1 (racemic) [Example 175, 1-(3-Fluoro-4-{4-[2-(3-hydroxymethyl-pyrrolidin-1-yl)-5-nitro-benzoyl]-piperazin-1-yl}-phenyl)-ethanone] | 0.0097
CC(=O)c1ccc(N2CCN(C(=O)c3cc([N+](=O)[O-])ccc3NCC3CC3)CC2)c(F)c1 [Example 4, 1-(4-{4-[2-(Cyclopropylmethyl-amino)-5-nitro-benzoyl]-piperazin-1-yl}-3-fluoro-phenyl)-ethanone] | 0.013
N#Cc1cc(C(F)(F)F)ccc1N1CCN(C(=O)c2cc([N+](=O)[O-])ccc2N2CCOCC2)CC1 [Example 186, 2-[4-(2-Morpholin-4-yl-5-nitro-benzoyl)-piperazin-1-yl]-5-trifluoromethyl-benzonitrile] | 0.015

The next lines start with the values.

IC50 [µM] | SMILES
0.016 | CNS(=O)(=O)c1ccc(N2CCCC2)c(C(=O)N2CCN(c3ccc(C#N)cc3)CC2)c1 [Example 233, 3-[4-(4-Cyano-phenyl)-piperazine-1-carbonyl]-N-methyl-4-pyrrolidin-1-yl-benzenesulfonamide]
0.02 | CC(=O)c1ccc(N2CCN(C(=O)c3cc([N+](=O)[O-])ccc3NC(C)(C)C)CC2)c(F)c1 [Example 176, 1-{3-Fluoro-4-[4-(2-tert.-butylamino-5-nitro-benzoyl)-piperazin-1-yl]-phenyl}-ethanone]
0.019 | CC(=O)c1ccc(N2CCN(C(=O)c3cc(S(C)(=O)=O)ccc3N3CCCCCC3)CC2)c(F)c1 [Example 76, 1-{4-[4-(2-Azepan-1-yl-5-methanesulfonyl-benzoyl)-piperazin-1-yl]-3-fluoro-phenyl}-ethanone]
0.007 | CC(=O)c1ccc(N2CCN(C(=O)c3cc([N+](=O)[O-])ccc3N3CCCC(C)C3)CC2)c(F)c1 (centres unmarked) [Example 37, 1-(3-Fluoro-4-{4-[2-(3-methyl-piperidin-1-yl)-5-nitro-benzoyl]-piperazin-1-yl}-phenyl)-ethanone]
0.011 | CNS(=O)(=O)c1ccc(N2CCCCC2)c(C(=O)N2CCN(c3ccc(C#N)cc3)CC2)c1 [Example 246, 3-[4-(4-Cyano-phenyl)-piperazine-1-carbonyl]-N-methyl-4-piperidin-1-yl-benzenesulfonamide]
0.008 | CNS(=O)(=O)c1ccc(N2CCOCC2)c(C(=O)N2CCN(c3ccc(C(F)(F)F)cc3)CC2)c1 [Example 131, N-Methyl-4-morpholin-4-yl-3-[4-(4-trifluoromethyl-phenyl)-piperazine-1-carbonyl]-benzenesulfonamide]
0.008 | CC(=O)c1ccc(N2CCN(C(=O)c3cc([N+](=O)[O-])ccc3N3CCCC3C)CC2)c(F)c1 (centres unmarked) [Example 38, 1-(3-Fluoro-4-{4-[2-(2-methyl-pyrrolidin-1-yl)-5-nitro-benzoyl]-piperazin-1-yl}-phenyl)-ethanone]
0.009 | CNS(=O)(=O)c1ccc(N2CCCC2)c(C(=O)N2CCN(c3ccc(C(C)=O)cc3F)CC2)c1 [Example 133, 3-[4-(4-Acetyl-2-fluoro-phenyl)-piperazine-1-carbonyl]-N-methyl-4-pyrrolidin-1-yl-benzenesulfonamide]
0.003 | CC(=O)c1ccc(N2CCN(C(=O)c3cc([N+](=O)[O-])ccc3NCC(C)C)CC2)c(F)c1 [Example 19, 1-{3-Fluoro-4-[4-(2-isobutylamino-5-nitro-benzoyl)-piperazin-1-yl]-phenyl}-ethanone]
0.012 | CNS(=O)(=O)c1ccc(N2CCOCC2)c(C(=O)N2CCN(c3ccc(C(F)(F)F)c(F)c3)CC2)c1 [Example 264, 3-[4-(3-Fluoro-4-trifluoro-methyl-phenyl)-piperazine-1-carbonyl]-N-methyl-4-morpholin-4-yl-benzenesulfonamide]
